Test results as given in PMC3169406, “Structure of a cyclin-dependent kinase from Giardia lamblia” (Acta Crystallographica Section F: Structural Biology and …, 2011).

Target: T1, GlCDK (cyclin-dependent kinase from G. lamblia) (Giardia duodenalis, UniProt A8BZ95)
T1 construct: gene GL50803_008037; monomer in asymmetric unit; residues Ser11-Pro308 observed
T1 sequence (A8BZ95 1-308): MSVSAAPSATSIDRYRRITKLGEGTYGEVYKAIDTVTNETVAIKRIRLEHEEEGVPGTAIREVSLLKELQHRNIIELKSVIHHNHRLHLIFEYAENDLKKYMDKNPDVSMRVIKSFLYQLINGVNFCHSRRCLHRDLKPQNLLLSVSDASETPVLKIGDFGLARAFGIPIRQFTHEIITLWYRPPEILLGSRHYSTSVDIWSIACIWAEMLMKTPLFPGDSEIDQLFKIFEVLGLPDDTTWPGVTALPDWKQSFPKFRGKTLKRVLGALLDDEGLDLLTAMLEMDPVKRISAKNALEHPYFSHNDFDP
Experiment: X-ray crystal structure, […] A, crystal soak
Settings: 1 mM AMP, 1 mM MgCl2, overnight soak; 200 mM sodium/potassium tartrate, 100 mM Bis-Tris propane, 25% PEG 3350; no cyclin; ATP-binding site

## Nc1ncnc2c1ncn2[C@@H]1O[C@H](COP(=O)(O)O)[C@@H](O)[C@H]1O [AMP, adenosine monophosphate]
  X-ray crystal structure, 2.0 A, crystal soak: Good OMIT density was observed for one AMP molecule
